“And” between values parts separate entries of the source, which are not always exact repeats. Equal entries are not always repeated. “Also recorded” adds a separate entry of the source. Where two headings read alike, the source gives them in different places.
Legend:
[1] = biological target: T1, interaction of AKAP-Lbc/DHPH and RhoA (Homo sapiens, UniProt P61586); assay: Homogeneous time-resolved fluorescence (HTRF) assay; format: binding
T1 construct: His6-AKAP-Lbc/DHPH (aa 1972–2342 of human AKAP-Lbc; NP_006729.4); made in house
Source text: Fig 2 The small molecule Scaff10-8 inhibits the interaction of the DH domain of AKAP-Lbc and RhoA. (A). Principle of homogenous time-resolved fluorescence (HTRF) assay. Recombinant His-AKAP-Lbc/DHPH and GST-RhoA were generated. The tags are recognized by specific antibodies coupled to fluorescent dyes. When the two proteins interact, donor and acceptor dyes of the antibodies are in close proximity, energy transfer occurs upon excitation at 320 nm and a FRET signal is detected (665 nm). If a compound disrupts the interaction of the DHPH domain and RhoA, the proximity of the fluorescent moieties remains insufficient for a FRET signal to occur. […] As expected, excess untagged Rho decreases the binding between GST-RhoA and His-AKAP-Lbc/DHPH in a dose-dependent manner (lower left panel). […] (C) The influence of Scaff10-8 on the interaction of RhoA with the recombinant DH domain of AKAP-Lbc in the absence of the PH domain was determined by Alpha screen. […] The IC50 value is indicated.
The assay was essentially carried out as described. Scaff10 derivatives were added to His6-AKAP-Lbc/DHPH protein (250 nM final concentration) in HTRF buffer (PBS; 4 mM MgCl2; 0.05% Tween 20) in 384 well plates (Proxiplate-384 Plus, white, #6008289; Perkin Elmer LAS, Rodgau, Germany). Concentrations of Scaff10 derivatives ranged between 1.56–200 μM (2% DMSO final concentration); HTRF buffer with 2% DMSO served as a control. GST-RhoA (30 nM final concentration) in HTRF buffer and anti-GST antibody coupled to terbium (donor) and anti-His6-tag antibody coupled to XL665 (acceptor) were added to all wells (final antibody concentration: 2 μg/ml). After 1 h incubation at room temperature in the dark, FRET signals were recorded at 620 and 665 nm using a Genios Pro plate reader (Tecan Austria GmbH, Grödig, AT) and the ratios of […] to 620 nm were calculated. Wells containing no compound were set to 100% interaction of AKAP-Lbc/DHPH with RhoA, wells containing GST-RhoA only (without His6-AKAP-Lbc/DHPH) were set to 0% interaction. To exclude any interference of the tags and/or antibodies with Scaff10 derivatives, a His6-GST fusion protein replaced the two tagged proteins in a control assay. Wells containing His6-GST fusion protein were set to 100% interaction of His6-GST, wells containing no fusion protein were set to 0% interaction.

647-RhoA = biological target: T2, 647-RhoA (Homo sapiens, UniProt P61586); assay: Microscale thermophoresis (MST) with 647-RhoA; format: binding
T2 construct: made in house
Procedure: The final concentration of GFP-AKAP-Lbc/DHPH was set to 150 nM, 95% LED and 80% MST laser power. […] The samples were incubated in the dark for 1 h incubation at room temperature, and measured with 30 sec laser-on and 5 sec laser-off time at a Monolith NT.115 device (NanoTemper). Measured fluorescence (F) was normalised (Fhot/Fcold = Fsteady state/Finitial state, Fig 3). Values of thermophoresis + T-jump were related to average of each measurement row (16 capillaries). Final values are given as ‰.
Fig 4 The Scaff10 derivative Scaff10-8 binds to RhoA but not to the DHPH domain of AKAP-Lbc. (A-D) Microscale thermophoresis (MST) takes advantage of the phenomenon of directed movement of particles in a temperature gradient. Binding events lead to changes in the hydration shell of biomolecules and a relative change of movement of the molecular complex along a temperature gradient. Using such changes, binding affinities can be determined. MST assays were carried out with (A) the recombinant DHPH domain of AKAP-Lbc fused with GFP and RhoA as a ligand and (B) fluorescent 647-RhoA and the His-tagged AKAP-Lbc/DHPH domain as a ligand. (C) MST assays for the analysis of the binding of Scaff10-8 to 647-RhoA. Upper panels: The concentration of fluorescent 647-RhoA remained constant and Scaff10-8 (left) and Scaff10-7 as a negative control (right) were titrated in increasing concentrations. Lower panels: Values of fluorescence corresponding to upper panels. (D) MST assay showing no binding of Scaff10-8 or Scaff10-7 to GFP-DHPH. Upper panels: The concentration of fluorescent GFP-AKAP-Lbc/DHPH remained constant and Scaff10-8 (left) and Scaff10-7 (right) were titrated in increasing concentrations. Lower panels: Values of fluorescence corresponding to upper panels. […] F norm = normalized fluorescence (fluorescence steady state/fluorescence initial state) indicated in ‰. n = 3–5. Mean ± SEM. […] The ligand protein named in each panel heading is used as the substance label, and it is uncertain whether these count as substances.

[2] = system: AQP2 localization in MCD4 cells; assay: Immunofluorescence microscopy of AQP2 in MCD4 cells; format: cell-based, mouse; conditions: 30 μM
Nephelometric solubility = format: physicochemical; conditions: DMEM + 10 % FCS, plasma or biological fluid, kinetic from dmso stock, maximal solubility in DMEM + 10 % FCS
Procedure: Solubility of Scaff10 derivatives was assessed nephelometrically. Scaff10 derivatives are moderately to poorly soluble in aqueous solutions due to their large number of aromatic rings having lipophilic character. Details about NMR, LC/MS and HPLC characterization steps are given in the Supplemental Information.
Suppl. Tab. 3: Overview of all 55 Scaff10 derivatives.Structures labeld with 1 were commercially obtained. MW = molecular weight. logP = calculated partition coefficient (using […]
Solubility was assessed nephelometrically in DMEM + 10 % FCS + Scaff10 derivative with either 0.3 or 2 % DMSO
final concentration; values in µM indicate maximal solubility of the compound under the respective condition. Yield in % indicates total yield of the last step of chemical synthesis
for each of Scaff10 derivatives. n.d. = not determined. n.i. = not indicated.
Scaff10 MW Number of exp. 2 % DMSO 0.3 % DMSO Scaff10 Yield
Structure log P Disruption of the PPI IC50 [µM]
derivative [g/mol] in dupl. [µM] [µM] class [%]

[3] = 0.3 % DMSO final, read-out: Solubility 0.3 % DMSO
[4] = 2 % DMSO final, read-out: Solubility 2 % DMSO

T1 sequence (P61586 whole entry, the tested form may be a part): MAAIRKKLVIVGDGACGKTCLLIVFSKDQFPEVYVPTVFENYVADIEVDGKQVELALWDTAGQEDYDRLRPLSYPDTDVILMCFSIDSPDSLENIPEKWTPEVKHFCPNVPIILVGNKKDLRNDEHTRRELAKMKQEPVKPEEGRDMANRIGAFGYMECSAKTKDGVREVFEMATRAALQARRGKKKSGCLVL
T2 sequence (P61586 whole entry): as the sequence (P61586 whole entry, the tested form may be a part) above

| IC50 ([1]; Table 1; HTRF; '-' = no IC50, inactive (n.d. is used separately in S3 Table); read-out: IC50 ± SEM) | binding to 647-RhoA (647-RhoA; result in words) | Structure (SMILES) | inhibitory effect on the AKAP-Lbc/DHPH-RhoA interaction ([1]; HTRF; result in words) | localization of AQP2 in MCD4 cells [2] | solubility (Nephelometric solubility; [3]) | solubility (Nephelometric solubility; [4]) | IC50 ([1]; read-out: IC50 ± SEM; Table 1; HTRF; '-' = no IC50, inactive (n.d. is used separately in S3 Table)) | IC50 ([1]; IC50 ± SEM, Table 1; HTRF; '-' = no IC50, inactive (n.d. is used separately in S3 Table)) | Kd (647-RhoA; KD for binding to 647-RhoA, mean ± SEM, n = 3–5) |
| --- | --- | --- | --- | --- | --- | --- | --- | --- | --- |
| > 200 µM | did not bind | CCOC(=O)CCc1c(C)c2ccc(OCC(=O)c3ccc(OC)cc3)cc2oc1=O [Scaff10-7, Ethyl 3-[7-[2-(4-methoxyphenyl)-2-oxo-ethoxy]-4-methyl-2-oxo-chromen-3-yl]propanoate] | did not interfere; also recorded: without inhibitory effects | did not affect the location of AQP2 | 40 µM | 70 µM |  |  |  |
|  |  | COc1ccc(-c2coc3cc4oc(=O)c(C)c(C)c4cc23)cc1 [Scaff10, 3-(4-Methoxyphenyl)-5,6-dimethyl-furo[3,2-g]chromen-7-one] | no inhibitory effect |  | 75 µM | 85 µM | > 200 µM |  |  |
|  |  | COc1ccc(-c2coc3cc4oc(=O)c(CCC(=O)O)c(C)c4cc23)cc1 [Scaff10-8, 3-[3-(4-Methoxyphenyl)-5-methyl-7-oxo-furo[3,2-g]chromen-6-yl] propanoic acid] |  | induced cAMP-independently the translocation of AQP2 to the plasma membrane | 30 µM | 50 µM |  | 34.1 ± 1.7 µM | 20 µM and 20.2 µM |

Source: paper PMC5786306, “An AKAP-Lbc-RhoA interaction inhibitor promotes the translocation of aquaporin-2 to the plasma membrane of renal collecting duct principal cells” (PLoS ONE, 2018)
